Results taken from patent US20230143604A1, “QW DOSING OF GIP RECEPTOR AGONIST PEPTIDE COMPOUNDS AND USES THEREOF” (TAKEDA PHARMACEUTICAL COMPANY LIMITED, priority 2020, published 2023).
Starred links: 1 amine or outer side, 2 acyl side, 3 side chain; linkers in the order of their positions; H or OH if unused. Non-standard residues stand in square brackets, D forms with d. Residues, ends and D or L forms follow the SMILES beside them. Groups on a side chain read outwards from the residue. No end group written: not given here. *: point of attachment. C18 diacid = O=C(O)CCCCCCCCCCCCCCCCC(=O)*; C17 diacid = O=C(O)CCCCCCCCCCCCCCCC(=O)*; γGlu = O=C(O)[C@H](CCC(=O)[*:2])N[*:1]; NMeY = CN[C@@H](Cc1ccc(O)cc1)C(=O)O; AEEA = NCCOCCOCC(=O)O; Aib = CC(C)(N)C(=O)O

T1: full-length human GIPR with an N-terminal FLAG tag (human, UniProt P48546 22-466)
T1 sequence (looked up): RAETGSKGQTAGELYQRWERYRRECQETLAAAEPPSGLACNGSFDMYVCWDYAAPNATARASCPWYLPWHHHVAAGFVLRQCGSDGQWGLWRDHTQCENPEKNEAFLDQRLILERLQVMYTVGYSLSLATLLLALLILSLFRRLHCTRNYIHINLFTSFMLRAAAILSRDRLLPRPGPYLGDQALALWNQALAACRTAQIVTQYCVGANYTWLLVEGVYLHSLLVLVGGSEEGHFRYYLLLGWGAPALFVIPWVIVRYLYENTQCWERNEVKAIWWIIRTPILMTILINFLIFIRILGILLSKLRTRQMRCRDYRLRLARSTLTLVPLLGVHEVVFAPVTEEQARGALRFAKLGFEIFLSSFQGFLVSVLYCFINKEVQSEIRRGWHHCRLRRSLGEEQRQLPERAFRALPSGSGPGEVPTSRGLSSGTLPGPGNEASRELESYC

T2: full-length human GIPR with an N-terminal FLAG tag, overexpressed on HEK-293T cells (human, UniProt P48546 22-466)
T2 sequence (looked up): T1 sequence (looked up)

B1: Compound No. 8 (peptide)
peptide: [NMeY][Aib]EGTFISDYSIALDR[Aib]AQ[Aib]K([2OEGgEgE-C17 diacid])FVNWLLAQR-NH2
B2: Compound No. 11 (peptide)
peptide: [NMeY][Aib]EGTFISDYSIALDR[Aib]K([AEEA-AEEA-γGlu-γGlu-C17 diacid])Q[Aib]NFVNWLLAQSPSSGAPPPS-NH2
B3: Compound No. 293 (peptide)
peptide: [NMeY][Aib]EGTFISDYSIALDR[Aib]K([AEEA-AEEA-γGlu-γGlu-C18 diacid])Q[Aib]NFVNWLLAQSPSSGAPPPS-NH2

Assays:
[1] = Serum half-life and percentage remaining at 48 hours; assay type: in vitro ADME; details: both sexes, pH 7.4, human plasma, 500 nM peptide, 37° C.; for half-life at 500 nM: read-out: Serum t1/2 (converted); for remaining at 48 h, 500 nM: plasma (sodium heparin)
Method: Human plasma (mixed gender: sodium heparin is used as anti-coagulant; pre-adjusted to pH 7.4—NB alternative species may be used) is spiked with each test peptide (500 nM) and incubated·cn=3) at 37° C. for 48 hours in a 5% CO2 environment. Aliquots are taken at 0. 1, 2, 4, 7, 24 and […] and pH adjusted to pH 3 with 20% formic acid prior to analysis. Appropriate positive control compounds will be incubated in parallel, in addition to a no plasma control, sampled at 0 and 8 hours. All samples will be treated with ice-cold acetonitrile/methanol (4:1 (v/v)) containing internal standard prior to centrifugation at 2000 g and 4° C. for 10 minutes and subjected to LC-MS/MS analysis.
The samples are analyzed by LC-MS/MS using a 6500 (or equivalent) triple quadrupole mass spectrometer (AB Sciex) coupled to an appropriate Liquid Chromatography (LC) system. Protein binding and stability values are determined via peak area ratios using multiple reaction monitoring (MRM) parameters following compound optimisation. Multiple reaction monitoring (MRM) is a highly sensitive method of targeted mass spectrometry (MS) that can be used to selectively detect and quantify peptides based on the screening of specified precursor peptide-to-fragment ion transitions.

[2] = Solubility in phosphate buffer pH 7.4
Outline: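 Solubility at pH 7.4 determined by stepwise addition of 200 mM phosphate buffer in 100 μL increments to 3 mg peptide, mixing briefly each time, until no insoluble material remained, then measured by liquid chromatography.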

[3] = molecular target: dog plasma proteins; experiment: plasma protein binding, ultracentrifugation, LC-MS/MS
[4] = molecular target: human plasma proteins; experiment: as above
[5] = molecular target: T1, full-length human GIPR with an …; experiment: cell-based or functional assay
[6] = molecular target: full-length human GLP-1R with an N-terminal FLAG tag (human, UniProt P43220 24-463); experiment: cell-based or functional assay
[7] = molecular target: T2, full-length human GIPR with an …; experiment: cell-based or functional assay
[8] = molecular target: full-length human GLP-1R with an N-terminal FLAG tag, overexpressed on HEK-293T cells (human, UniProt P43220 24-463); experiment: cell-based or functional assay
[9] = pH 7.4, aqueous buffer, pH 7.4 Phosphate Buffer - Solubility, 200 mM Phosphate buffer pH 7.4
[10] = pH 7.4, solubility in phosphate buffer at pH 7.4, 200 mM phosphate buffer pH 7.4

| Molecule | half-life at 500 nM [1] | remaining at 48 h, 500 nM [1] | solubility [2, 9] | solubility [2, 10] | Dog PPB (FUplasma), fraction unbound in plasma (fraction unbound) [3] | Human PPB (FUplasma), fraction unbound in plasma (fraction unbound) [4] | Human GIPR cAMP EC50, HEK293T [5] | Human GLP1R cAMP EC50, HEK293T [6] | Human GIPR cAMP EC50, HEK293T [7] | Human GLP1R cAMP EC50, HEK293T [8] |
| --- | --- | --- | --- | --- | --- | --- | --- | --- | --- | --- |
| CC[C@H](C)[C@H](NC(=O)[C@H](CO)NC(=O)[C@H](Cc1ccc(O)cc1)NC(=O)[C@H](CC(=O)O)NC(=O)[C@H](CO)NC(=O)[C@@H](NC(=O)[C@H](Cc1ccccc1)NC(=O)[C@@H](NC(=O)CNC(=O)[C@H](CCC(=O)O)NC(=O)C(C)(C)NC(=O)[C@H](Cc1ccc(O)cc1)NC)[C@@H](C)O)[C@@H](C)CC)C(=O)N[C@@H](C)C(=O)N[C@@H](CC(C)C)C(=O)N[C@@H](CC(=O)O)C(=O)N[C@@H](CCCNC(=N)N)C(=O)N[C@@H](CCCCNC(=O)COCCOCCNC(=O)COCCOCCNC(=O)CC[C@H](NC(=O)CCCCCCCCCCCCCCCCC(=O)O)C(=O)O)C(=O)N[C@@H](Cc1c[nH]cn1)C(=O)N[C@@H](CCC(N)=O)C(=O)N[C@@H](CCC(N)=O)C(=O)N[C@@H](CC(N)=O)C(=O)N[C@@H](Cc1ccccc1)C(=O)N[C@H](C(=O)N[C@@H](CC(N)=O)C(=O)N[C@@H](Cc1c[nH]c2ccccc12)C(=O)N[C@@H](CC(C)C)C(=O)N[C@@H](CC(C)C)C(=O)N[C@@H](C)C(=O)N[C@@H](CCC(N)=O)C(=O)N[C@@H](CCCNC(=N)N)C(=O)N1CCC[C@H]1C(=O)N[C@@H](CO)C(=O)N[C@@H](CO)C(=O)NCC(=O)N[C@@H](C)C(=O)N1CCC[C@H]1C(=O)N1CCC[C@H]1C(=O)N1CCC[C@H]1C(=O)N[C@@H](CO)C(N)=O)C(C)C [Compound 4] (H-[NMeY][Aib]EGTFISDYSIALDRK([AEEA-AEEA-γGlu-C18 diacid])HQQNFVNWLLAQRPSSGAPPPS-NH2) | 17.1 h | 15% | ≥ 30 mg/mL | ≥ 15 mg/mL | – | – | – | – | – | – |
| CC[C@H](C)[C@H](NC(=O)[C@H](CO)NC(=O)[C@H](Cc1ccc(O)cc1)NC(=O)[C@H](CC(=O)O)NC(=O)[C@H](CO)NC(=O)[C@@H](NC(=O)[C@H](Cc1ccccc1)NC(=O)[C@@H](NC(=O)CNC(=O)[C@H](CCC(=O)O)NC(=O)C(C)(C)NC(=O)[C@H](Cc1ccc(O)cc1)NC)[C@@H](C)O)[C@@H](C)CC)C(=O)N[C@@H](C)C(=O)N[C@@H](CC(C)C)C(=O)N[C@@H](CC(=O)O)C(=O)N[C@@H](CCCNC(=N)N)C(=O)N[C@H](C(=O)N[C@@H](Cc1c[nH]cn1)C(=O)N[C@@H](CCC(N)=O)C(=O)NC(C)(C)C(=O)N[C@@H](CC(N)=O)C(=O)N[C@@H](Cc1ccccc1)C(=O)N[C@H](C(=O)N[C@@H](CC(N)=O)C(=O)N[C@@H](Cc1c[nH]c2ccccc12)C(=O)N[C@@H](CC(C)C)C(=O)N[C@@H](CC(C)C)C(=O)N[C@@H](C)C(=O)N[C@@H](CCC(N)=O)C(=O)N[C@@H](CCCCNC(=O)COCCOCCNC(=O)COCCOCCNC(=O)CC[C@H](NC(=O)CCCCCCCCCCCCCCCCC(=O)O)C(=O)O)C(=O)N1CCC[C@H]1C(=O)N[C@@H](CO)C(=O)N[C@@H](CO)C(=O)NCC(=O)N[C@@H](C)C(=O)N1CCC[C@H]1C(=O)N1CCC[C@H]1C(=O)N1CCC[C@H]1C(=O)N[C@@H](CO)C(N)=O)C(C)C)[C@@H](C)CC [Compound 2] (H-[NMeY][Aib]EGTFISDYSIALDRIHQ[Aib]NFVNWLLAQK([AEEA-AEEA-γGlu-C18 diacid])PSSGAPPPS-NH2) | 24.1 h | 27% | ≥ 30 mg/mL | ≥ 15 mg/mL | – | – | – | – | – | – |
| CC[C@H](C)[C@H](NC(=O)[C@H](CO)NC(=O)[C@H](Cc1ccc(O)cc1)NC(=O)[C@H](CC(=O)O)NC(=O)[C@H](CO)NC(=O)[C@@H](NC(=O)[C@H](Cc1ccccc1)NC(=O)[C@@H](NC(=O)CNC(=O)[C@H](CCC(=O)O)NC(=O)C(C)(C)NC(=O)[C@H](Cc1ccc(O)cc1)NC)[C@@H](C)O)[C@@H](C)CC)C(=O)N[C@@H](C)C(=O)N[C@@H](CC(C)C)C(=O)N[C@@H](CC(=O)O)C(=O)N[C@@H](CCCNC(=N)N)C(=O)NC(C)(C)C(=O)N[C@@H](Cc1c[nH]cn1)C(=O)N[C@@H](CCC(N)=O)C(=O)NC(C)(C)C(=O)N[C@@H](CC(N)=O)C(=O)N[C@@H](Cc1ccccc1)C(=O)N[C@H](C(=O)N[C@@H](CC(N)=O)C(=O)N[C@@H](Cc1c[nH]c2ccccc12)C(=O)N[C@@H](CC(C)C)C(=O)N[C@@H](CC(C)C)C(=O)N[C@@H](C)C(=O)N[C@@H](CCC(N)=O)C(=O)N[C@@H](CCCCNC(=O)COCCOCCNC(=O)COCCOCCNC(=O)CC[C@H](NC(=O)CCCCCCCCCCCCCCCCC(=O)O)C(=O)O)C(=O)N1CCC[C@H]1C(=O)N[C@@H](CO)C(=O)N[C@@H](CO)C(=O)NCC(=O)N[C@@H](C)C(=O)N1CCC[C@H]1C(=O)N1CCC[C@H]1C(=O)N1CCC[C@H]1C(=O)N[C@@H](CO)C(N)=O)C(C)C [Compound 1] (H-[NMeY][Aib]EGTFISDYSIALDR[Aib]HQ[Aib]NFVNWLLAQK([AEEA-AEEA-γGlu-C18 diacid])PSSGAPPPS-NH2) | > 48 h | 100% | ≥ 30 mg/mL | ≥ 15 mg/mL | – | – | – | – | – | – |
| CC[C@H](C)[C@H](NC(=O)[C@H](CO)NC(=O)[C@H](Cc1ccc(O)cc1)NC(=O)[C@H](CC(=O)O)NC(=O)[C@H](CO)NC(=O)[C@@H](NC(=O)[C@H](Cc1ccccc1)NC(=O)[C@@H](NC(=O)CNC(=O)[C@H](CCC(=O)O)NC(=O)C(C)(C)NC(=O)[C@H](Cc1ccc(O)cc1)NC)[C@@H](C)O)[C@@H](C)CC)C(=O)N[C@@H](C)C(=O)N[C@@H](CCCCNC(=O)COCCOCCNC(=O)COCCOCCNC(=O)CC[C@H](NC(=O)CCCCCCCCCCCCCCCCC(=O)O)C(=O)O)C(=O)N[C@@H](CC(=O)O)C(=O)N[C@@H](CCCNC(=N)N)C(=O)N[C@H](C(=O)N[C@@H](Cc1c[nH]cn1)C(=O)N[C@@H](CCC(N)=O)C(=O)N[C@@H](CCC(N)=O)C(=O)N[C@@H](CC(N)=O)C(=O)N[C@@H](Cc1ccccc1)C(=O)N[C@H](C(=O)N[C@@H](CC(N)=O)C(=O)N[C@@H](Cc1c[nH]c2ccccc12)C(=O)N[C@@H](CC(C)C)C(=O)N[C@@H](CC(C)C)C(=O)N[C@@H](C)C(=O)N[C@@H](CCC(N)=O)C(=O)N[C@@H](CCCNC(=N)N)C(=O)N1CCC[C@H]1C(=O)N[C@@H](CO)C(=O)N[C@@H](CO)C(=O)NCC(=O)N[C@@H](C)C(=O)N1CCC[C@H]1C(=O)N1CCC[C@H]1C(=O)N1CCC[C@H]1C(=O)N[C@@H](CO)C(N)=O)C(C)C)[C@@H](C)CC [Compound 3] (H-[NMeY][Aib]EGTFISDYSIAK([AEEA-AEEA-γGlu-C18 diacid])DRIHQQNFVNWLLAQRPSSGAPPPS-NH2) | 15.9 h | 13% | ≥ 30 mg/mL | ≥ 15 mg/mL | – | – | – | – | – | – |
| B1 | – | – | – | – | 0.0016 | 0.0009 | 0.0003 nM | 41.4 nM | – | – |
| B2 | – | – | – | – | < 0.0024 | 0.0038 | 0.0003 nM | 1000 nM | – | – |
| B3 | – | – | – | – | < 0.002 | < 0.002 | – | – | 0.0004 nM | 129 nM |
